Laboratory results reported in the supplement of paper PMC10307832.

How the values were obtained:
Assay in all cases: relative viability (nuclei count vs DMSO), 5 days (fraction); higher = more cells survive
Motesanib + Dasatinib = compound: CC1(C)CNc2cc(NC(=O)c3cccnc3NCc3ccncc3)ccc21 [Motesanib] + Cc1nc(Nc2ncc(C(=O)Nc3c(C)cccc3Cl)s2)cc(N2CCN(CCO)CC2)n1 [Dasatinib] (partner 0.075 µM)
Outline: (§1)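 Relative viability divides the nuclei count in treated wells by that in vehicle wells. Lung cancer cell lines were seeded in 1536-well plates, dosed by pin tool the next day, and fixed and stained after 5 days in one step with final 0.05% Triton X-100, 1% formaldehyde and 1 ug/ml Hoechst. Dosing was a single drug or a fixed anchor-drug dose plus five library-drug doses (not always all listed) in √10 steps, and values are medians of duplicate plates imaged at 4×.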

[1] = compound: C[C@@]1(C(=O)Nc2ccc(F)nc2)CCCN1c1nc(Nc2cc(C3CC3)n[nH]2)c2cccn2n1 + CC(=O)Nc1cccc(-n2c(=O)n(C3CC3)c(=O)c3c(Nc4ccc(I)cc4F)n(C)c(=O)c(C)c32)c1 [Trametinib] (partner 0.02 µM)
Outline: as §1

[2] = compound: C[C@@]1(C(=O)Nc2ccc(F)nc2)CCCN1c1nc(Nc2cc(C3CC3)n[nH]2)c2cccn2n1 + COc1cc2c(Oc3ccc(NC(=O)C4(C(=O)Nc5ccc(F)cc5)CC4)cc3F)ccnc2cc1OCCCN1CCOCC1 [Foretinib] (partner 0.25 µM)
Outline: as §1

[3] = compound: C[C@@]1(C(=O)Nc2ccc(F)nc2)CCCN1c1nc(Nc2cc(C3CC3)n[nH]2)c2cccn2n1 + CS(=O)(=O)N1CCN(Cc2cc3nc(-c4cccc5[nH]ncc45)nc(N4CCOCC4)c3s2)CC1 [Pictilisib] (partner 1 µM)
Outline: as §1

Row | Cell Line | relative viability (Motesanib + Dasatinib; first compound 0.01 µM) | relative viability (Motesanib + Dasatinib; first compound 0.03162 µM) | relative viability (Motesanib + Dasatinib; first compound 0.1 µM) | relative viability (Motesanib + Dasatinib; first compound 0.3162 µM) | relative viability (Motesanib + Dasatinib; first compound 1 µM) | relative viability ([1]; first compound 0.04 µM) | relative viability ([1]; first compound 0.1265 µM) | relative viability ([1]; first compound 0.4 µM) | relative viability ([1]; first compound 1.265 µM) | relative viability ([2]; first compound 0.04 µM) | relative viability ([2]; first compound 0.1265 µM) | relative viability ([2]; first compound 0.4 µM) | relative viability ([2]; first compound 1.265 µM) | relative viability ([3]; first compound 0.04 µM) | relative viability ([3]; first compound 0.1265 µM) | relative viability ([3]; first compound 0.4 µM) | relative viability ([3]; first compound 1.265 µM)
1 | NCI-H1666 | 0.783 | 0.747 | 0.89 | 0.797 | 0.802 | 0.826 | 0.688 | 0.697 | 0.755 | 0.925 | 0.909 | 0.778 | 0.784 | 0.364 | 0.378 | 0.447 | 0.38
2 | LC-2-ad | 0.539 | 0.575 | 0.745 | 0.503 | 0.496 | 0.848 | 0.749 | 0.648 | 0.735 | 0.651 | 0.617 | 0.599 | 0.5 | 0.248 | 0.271 | 0.272 | 0.206
3 | SK-LU-1 | 0.189 | 0.189 | 0.183 | 0.198 | 0.209 | 0.45 | 0.413 | 0.421 | 0.469 | 0.782 | 0.546 | 0.602 | 0.575 | 0.546 | 0.453 | 0.428 | 0.502
4 | ChaGo-K-1 | 0.55 | 0.535 | 0.544 | 0.696 | 0.691 | 0.827 | 0.869 | 0.81 | 0.823 | 0.831 | 0.829 | 0.828 | 0.888 | 0.643 | 0.662 | 0.849 | 0.371
5 | COR-L 105 | 0.407 | 0.243 | 0.308 | 0.401 | 0.394 | 0.44 | 0.42 | 0.439 | 0.399 | 0.887 | 0.993 | 0.828 | 1.01 | 0.414 | 0.328 | 0.26 | 0.241
6 | NCI-H1975 | 0.363 | 0.328 | 0.397 | 0.324 | 0.312 | 0.272 | 0.273 | 0.313 | 0.234 | 0.861 | 0.962 | 0.88 | 0.716 | 0.226 | 0.211 | 0.188 | 0.197
7 | Calu-6 |  |  |  |  |  |  |  |  |  | 0.959 | 0.871 | 0.758 | 0.414 | 0.965 | 0.833 | 0.695 | 0.425
8 | NCI-H1993 | 0.629 | 0.509 | 0.639 | 0.63 | 0.588 | 0.468 | 0.42 | 0.534 | 0.46 | 0.659 | 0.67 | 0.532 | 0.555 | 0.906 |  | 0.803 | 0.812
9 | NCI-H1648 |  |  |  |  |  | 0.391 | 0.285 | 0.282 | 0.39 |  |  |  |  |  |  |  | 
10 | EBC-1 |  |  |  |  |  |  |  |  |  | 0.114 | 0.0828 | 0.0953 | 0.11 | 0.32 | 0.231 | 0.241 | 0.162
11 | NCI-H1299 |  |  |  |  |  |  |  |  |  | 1.21 | 1.06 | 0.585 | 1.05 | 0.752 | 0.844 | 0.669 | 0.286
12 | NCI-H2342 | 0.271 | 0.312 | 0.336 | 0.279 | 0.317 | 0.668 | 0.813 | 0.605 | 0.7 | 1.02 | 0.906 | 0.812 | 0.917 |  |  |  | 
13 | IA-LM |  |  |  |  |  |  |  |  |  | 1.3 | 1.11 | 0.921 | 1.13 | 0.175 | 0.261 | 0.125 | 0.179
